Reference: US20240174744A1, “METHODS OF TREATMENT USING PROTEIN BINDERS TO IRHOM2 EPITOPES” (SCIRHOM GMBH, priority 2021, published 2024)

Test system: PMA-induced release of HB-EGF from THP-1 cells
Assay: ELISA-based HB-EGF release assay, PMA-stimulated THP-1 cells
Type: cell-based
Details: Homo sapiens, murine (m) and chimeric (ch) antibodies 3 μg/ml, Batimastat 10 μM, PMA 25 ng/ml, 6 hours
Method: In the following study, ELISA-based HB-EGF release assays were performed to analyze the inhibitory effects of the antibodies of the present disclosure on PMA-induced release of endogenous HB-EGF from human THP-1 monocytic cells.
In brief, on day 1, Nunc black MaxiSorp® 96-well plates (Thermo Fisher Scientific, USA) were coated for 7 hours with 100 μl per well of rat anti-human HB-EGF capture antibody (provided as part of the DuoSet ELISA kit) at 2 μg/ml TBS at room temperature. Capture antibody solution was removed and MaxiSorp® plates were blocked with 300 μl per well of TBS, 1% BSA at room temperature for 3 hours. […]
Subsequently, cells (except those for unstimulated controls) were stimulated with 20 μl per well of PMA (Sigma-Aldrich, USA) at 150 ng/ml in growth medium for a final concentration of 25 ng/ml at 37° C., 5% CO2 for 6 hours. […] Using an infinite M1000 (Tecan Group, Switzerland) microplate reader, the fluorescence of each well was collected at an excitation wavelength of 435 nm and an emission wavelength of 555 nm.

CNC(=O)[C@H](Cc1ccccc1)NC(=O)[C@H](CC(C)C)[C@H](CSc1cccs1)C(=O)NO [Batimastat]
inhibition at 10 µM: 98.9%
